Reference: patent US11753446B2, “Beta-hairpin peptidomimetics” (POLYPHOR AG, priority 2014, dated 2023)
Like-named read-outs stand apart in the source and are kept apart here. Where a SMILES comes first, the peptide text is derived from it. Bridges are numbered along the chain shown (N, C = ends). [ ]: non-standard residue; d: D form. Tle = CC(C)(C)[C@H](N)C(=O)O; dDab = NCC[C@@H](N)C(=O)O; Orn = NCCC[C@H](N)C(=O)O; Dab = NCC[C@H](N)C(=O)O; Dap = NC[C@H](N)C(=O)O

Key:
[1] = tested on: Klebsiella pneumoniae ATCC 13883; type: cell-based
Procedure, shortened: (§1)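 Peptide activity was tested by NCCLS broth microdilution with slight modifications. Bacteria were diluted in cation-adjusted Mueller-Hinton II broth to approximately 10^6 CFU/mL against a 0.5 McFarland standard. They were then exposed to two-fold serial peptide dilutions in broth containing 0.002% final polysorbate 80.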

[2] = tested on: Acinetobacter baumannii DSM 30008; type: cell-based
Procedure, shortened: as §1

[3] = tested on: Escherichia coli ATCC 25922; type: cell-based
Procedure, shortened: as §1

[4] = tested on: human red blood cells (hRBC); test: Hemolysis: hemolytic activity at 100 μg/mL, 1 h at 37° C.
Procedure, shortened: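 Peptides at 100 μg/mL incubated with washed 20% (v/v) human erythrocytes (~0.9×10^9 cells/mL) for 1 h at 37 °C with shaking. Released hemoglobin read at OD 540 nm in supernatant; 0% and 100% lysis from PBS/0.001% acetic acid and 2.5% Triton X-100.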

[5] = Mueller-Hinton II broth, 18-20 hours at 35° C.
[6] = 100 μg/mL, 20% hRBC, 1 h at 37° C.

Structure (SMILES)	Klebsiella pneumoniae ATCC 13883 MIC ([1]; ATCC 13883) [µg/mL]	Acinetobacter baumannii DSM 30008 MIC ([2]; DSM 30008) [µg/mL]	Escherichia coli ATCC 25922 MIC ([3]; ATCC 25922) [µg/mL]	Hemolysis at 100 μg/mL ([4]; red cells of human, 1 h, 100) [%]	Klebsiella pneumoniae ATCC 13883 MIC [1, 5] [µg/mL]	Acinetobacter baumannii DSM 30008 MIC [2, 5] [µg/mL]	Escherichia coli ATCC 25922 MIC [3, 5] [µg/mL]	Hemolysis at 100 μg/mL [4, 6] [%]
CC(C)C[C@@H]1NC(=O)[C@H](CCCNC(=N)N)NC(=O)[C@@H](CCN)NC(=O)[C@H](CC(C)C)NC(=O)[C@@H]2CSSC[C@H](NC1=O)C(=O)N[C@@H](Cc1ccc(O)cc1)C(=O)N[C@@H](CC(N)=O)C(=O)N[C@@H](CCCN)C(=O)N[C@H](CCN)C(=O)N[C@@H](CCN)C(=O)N[C@@H](Cc1c[nH]c3ccccc13)C(=O)N[C@@H](CO)C(=O)N[C@@H](Cc1ccc(O)cc1)C(=O)N2 [Example 63, cyclo(-Leu-Cys-Tyr-Asn-Orn-^DDab-Dab-Trp-Ser-Tyr-Cys-Leu-^DDab-Arg-)] (HELM PEPTIDE1{C.L.[NCC[C@@H](N[*:1])C(=O)[*:2]].R.L.C.Y.N.[Orn].[NCC[C@@H](N[*:1])C(=O)[*:2]].[Dab].W.S.Y}$PEPTIDE1,PEPTIDE1,1:R3-6:R3|PEPTIDE1,PEPTIDE1,1:R1-14:R2$$$V2.0)	0.75	0.625	1	3				
CC(C)C[C@@H]1NC(=O)[C@H](CCCNC(=N)N)NC(=O)[C@@H](CCN)NC(=O)[C@H](C(C)(C)C)NC(=O)[C@@H]2CSSC[C@H](NC1=O)C(=O)N[C@@H](Cc1ccc(O)cc1)C(=O)N[C@@H](CC(N)=O)C(=O)N[C@@H](CCCN)C(=O)N[C@H](CCN)C(=O)N[C@@H](CCN)C(=O)N[C@@H](Cc1c[nH]c3ccccc13)C(=O)N[C@@H](CO)C(=O)N[C@@H](Cc1ccc(O)cc1)C(=O)N2 [Example 64, cyclo(-Leu-Cys-Tyr-Asn-Orn-^DDab-Dab-Trp-Ser-Tyr-Cys-tBuGly-^DDab-Arg-)] (cyclo(C[Tle][dDab]RLCYN[Orn][dDab][Dab]WSY); disulfide 1-6)					1	1.125	1	1
CC(C)C[C@@H]1NC(=O)[C@H](CCCNC(=N)N)NC(=O)[C@@H](CCCCN)NC(=O)[C@H](C(C)C)NC(=O)[C@@H]2CSSC[C@H](NC1=O)C(=O)N[C@@H](Cc1ccc(O)cc1)C(=O)N[C@@H](CC(N)=O)C(=O)N[C@@H](CCCN)C(=O)N[C@H](CCN)C(=O)N[C@@H](CCN)C(=O)N[C@@H](Cc1c[nH]c3ccccc13)C(=O)N[C@@H](CO)C(=O)N[C@@H](Cc1ccc(O)cc1)C(=O)N2 [Example 65, cyclo(-Leu-Cys-Tyr-Asn-Orn-^DDab-Dab-Trp-Ser-Tyr-Cys-Val-^DLys-Arg-)] (HELM PEPTIDE1{C.V.[dK].R.L.C.Y.N.[Orn].[NCC[C@@H](N[*:1])C(=O)[*:2]].[Dab].W.S.Y}$PEPTIDE1,PEPTIDE1,1:R3-6:R3|PEPTIDE1,PEPTIDE1,1:R1-14:R2$$$V2.0)	1	1.25	2	1				
CC(C)C[C@@H]1NC(=O)[C@H](CCCNC(=N)N)NC(=O)[C@@H](CCCNC(=N)N)NC(=O)[C@H](C(C)C)NC(=O)[C@@H]2CSSC[C@H](NC1=O)C(=O)N[C@@H](Cc1ccc(O)cc1)C(=O)N[C@@H](CC(N)=O)C(=O)N[C@@H](CCCN)C(=O)N[C@H](CCN)C(=O)N[C@@H](CCN)C(=O)N[C@@H](Cc1c[nH]c3ccccc13)C(=O)N[C@@H](CO)C(=O)N[C@@H](Cc1ccc(O)cc1)C(=O)N2 [Example 66, cyclo(-Leu-Cys-Tyr-Asn-Orn-^DDab-Dab-Trp-Ser-Tyr-Cys-Val-^DArg-Arg-)] (HELM PEPTIDE1{C.V.[dR].R.L.C.Y.N.[Orn].[NCC[C@@H](N[*:1])C(=O)[*:2]].[Dab].W.S.Y}$PEPTIDE1,PEPTIDE1,1:R3-6:R3|PEPTIDE1,PEPTIDE1,1:R1-14:R2$$$V2.0)	0.5	1.25	1	2				
CC(C)C[C@@H]1NC(=O)[C@H](CCCCN)NC(=O)[C@@H](CCN)NC(=O)[C@H](C(C)C)NC(=O)[C@@H]2CSSC[C@H](NC1=O)C(=O)N[C@@H](Cc1ccc(O)cc1)C(=O)N[C@@H](CC(N)=O)C(=O)N[C@@H](CCCN)C(=O)N[C@H](CCN)C(=O)N[C@@H](CCN)C(=O)N[C@@H](Cc1c[nH]c3ccccc13)C(=O)N[C@@H](CO)C(=O)N[C@@H](Cc1ccc(O)cc1)C(=O)N2 [Example 67, cyclo(-Leu-Cys-Tyr-Asn-Orn-^DDab-Dab-Trp-Ser-Tyr-Cys-Val-^DDab-Lys-)] (HELM PEPTIDE1{C.V.[NCC[C@@H](N[*:1])C(=O)[*:2]].K.L.C.Y.N.[Orn].[NCC[C@@H](N[*:1])C(=O)[*:2]].[Dab].W.S.Y}$PEPTIDE1,PEPTIDE1,1:R3-6:R3|PEPTIDE1,PEPTIDE1,1:R1-14:R2$$$V2.0)					1	1.5	1	1
CC(C)C[C@@H]1NC(=O)[C@H](CN)NC(=O)[C@@H](CCN)NC(=O)[C@H](C(C)C)NC(=O)[C@@H]2CSSC[C@H](NC1=O)C(=O)N[C@@H](Cc1ccc(O)cc1)C(=O)N[C@@H](CC(N)=O)C(=O)N[C@@H](CCCN)C(=O)N[C@H](CCN)C(=O)N[C@@H](CCN)C(=O)N[C@@H](Cc1c[nH]c3ccccc13)C(=O)N[C@@H](CO)C(=O)N[C@@H](Cc1ccc(O)cc1)C(=O)N2 [Example 68, cyclo(-Leu-Cys-Tyr-Asn-Orn-^DDab-Dab-Trp-Ser-Tyr-Cys-Val-^DDab-Dap-)] (cyclo(CV[dDab][Dap]LCYN[Orn][dDab][Dab]WSY); disulfide 1-6)	0.5	1.25	0.75	1				
CC(C)C[C@@H]1NC(=O)[C@@H]2CSSC[C@H](NC(=O)[C@H](C(C)C)NC(=O)[C@H](CCCNC(=N)N)NC(=O)[C@@H](CCN)NC1=O)C(=O)N[C@@H](Cc1ccc(O)cc1)C(=O)N[C@@H](CC(N)=O)C(=O)N[C@@H](CCCN)C(=O)N[C@H](CCN)C(=O)N[C@@H](CCN)C(=O)N[C@@H](Cc1c[nH]c3ccccc13)C(=O)N[C@@H](CO)C(=O)N[C@@H](Cc1ccc(O)cc1)C(=O)N2 [Example 69, cyclo(-Val-Cys-Tyr-Asn-Orn-^DDab-Dab-Trp-Ser-Tyr-Cys-Leu-^DDab-Arg-)] (HELM PEPTIDE1{C.L.[NCC[C@@H](N[*:1])C(=O)[*:2]].R.V.C.Y.N.[Orn].[NCC[C@@H](N[*:1])C(=O)[*:2]].[Dab].W.S.Y}$PEPTIDE1,PEPTIDE1,1:R3-6:R3|PEPTIDE1,PEPTIDE1,1:R1-14:R2$$$V2.0)	1	1	1	1				
CC[C@H](C)[C@@H]1NC(=O)[C@H](CCCNC(=N)N)NC(=O)[C@@H](CCN)NC(=O)[C@H](C(C)C)NC(=O)[C@@H]2CSSC[C@H](NC1=O)C(=O)N[C@@H](Cc1ccc(O)cc1)C(=O)N[C@@H](CC(N)=O)C(=O)N[C@@H](CCCN)C(=O)N[C@H](CCN)C(=O)N[C@@H](CCN)C(=O)N[C@@H](Cc1c[nH]c3ccccc13)C(=O)N[C@@H](CO)C(=O)N[C@@H](Cc1ccc(O)cc1)C(=O)N2 [Example 70, cyclo(-Ile-Cys-Tyr-Asn-Orn-^DDab-Dab-Trp-Ser-Tyr-Cys-Val-^DDab-Arg-)] (HELM PEPTIDE1{C.V.[NCC[C@@H](N[*:1])C(=O)[*:2]].R.I.C.Y.N.[Orn].[NCC[C@@H](N[*:1])C(=O)[*:2]].[Dab].W.S.Y}$PEPTIDE1,PEPTIDE1,1:R3-6:R3|PEPTIDE1,PEPTIDE1,1:R1-14:R2$$$V2.0)	1	2.25	1	1				
CC(C)C[C@@H]1NC(=O)[C@H](CCCNC(=N)N)NC(=O)[C@@H](CCN)NC(=O)[C@H](C)NC(=O)[C@@H]2CSSC[C@H](NC1=O)C(=O)N[C@@H](Cc1ccc(O)cc1)C(=O)N[C@@H](CC(N)=O)C(=O)N[C@@H](CCCN)C(=O)N[C@H](CCN)C(=O)N[C@@H](CCN)C(=O)N[C@@H](Cc1c[nH]c3ccccc13)C(=O)N[C@@H](CO)C(=O)N[C@@H](Cc1ccc(O)cc1)C(=O)N2 [Example 71, cyclo(-Leu-Cys-Tyr-Asn-Orn-^DDab-Dab-Trp-Ser-Tyr-Cys-Ala-^DDab-Arg-)] (HELM PEPTIDE1{A.[NCC[C@@H](N[*:1])C(=O)[*:2]].R.L.C.Y.N.[Orn].[NCC[C@@H](N[*:1])C(=O)[*:2]].[Dab].W.S.Y.C}$PEPTIDE1,PEPTIDE1,5:R3-14:R3|PEPTIDE1,PEPTIDE1,1:R1-14:R2$$$V2.0)	1	1.5	1.5	1				
